Assay results taken from a compilation of properties of binary mixtures (doi:10.1021/acs.jpcb.6b06974).

Assay: xn = mol fraction of the nth substance listed
Conditions: 101 kPa

CCCCCC[n+]1ccn(C)c1.O=S(=O)([N-]S(=O)(=O)C(F)(F)F)C(F)(F)F + ClC(Cl)Cl
Conditions | electrical conductivity [S/m]
288.5 K, x1 = 0.018 | 0.021
288.5 K, x1 = 0.137 | 0.302
288.5 K, x1 = 0.297 | 0.46
288.5 K, x1 = 0.604 | 0.255
288.5 K, x1 = 0.713 | 0.211
288.5 K, x1 = 0.848 | 0.169
288.5 K, x1 = 0.911 | 0.153
288.5 K, x2 = 0.014 | 0.137
298.2 K, x1 = 0.034 | 0.076
298.2 K, x1 = 0.167 | 0.477
298.2 K, x1 = 0.256 | 0.582
298.2 K, x1 = 0.379 | 0.524
298.2 K, x1 = 0.562 | 0.369
298.2 K, x1 = 0.732 | 0.295
298.2 K, x1 = 0.87 | 0.245
298.2 K, x1 = 0.924 | 0.233
298.2 K, x1 = 0.962 | 0.221
298.2 K, x2 = 0.008 | 0.213
308.2 K, x1 = 0.019 | 0.04
308.2 K, x1 = 0.123 | 0.501
308.2 K, x1 = 0.214 | 0.686
308.2 K, x1 = 0.318 | 0.701
308.2 K, x1 = 0.4 | 0.652
308.2 K, x1 = 0.585 | 0.431
308.2 K, x1 = 0.807 | 0.378
308.2 K, x1 = 0.905 | 0.327
308.2 K, x1 = 0.949 | 0.336
308.2 K, x2 = 0.015 | 0.326
318.5 K, x1 = 0.03 | 0.072
318.5 K, x1 = 0.2 | 0.785
318.5 K, x1 = 0.247 | 0.835
318.5 K, x1 = 0.446 | 0.788
318.5 K, x1 = 0.684 | 0.55
318.5 K, x1 = 0.815 | 0.529
318.5 K, x1 = 0.92 | 0.479
